Data on 14 compounds can be found in patent US11208422B2, “Substituted bridged diazepane derivatives and use thereof as TASK-1 and TASK-3 inhibitors” (Bayer Pharma Aktiengesellschaft, priority 2017, dated 2021).

Usually IC50 stands for the midpoint of a concentration-inhibition curve.

The structures appear in SMILES notation.

In test [1] the target is recombinant TASK-1 (Homo sapiens (Human), UniProt O14649). Put plainly: Inhibition of recombinant TASK-1 in stably transfected CHO cells (KCl-induced depolarization, voltage-sensitive dye, FLIPR). The format is cell-based. As to conditions: depolarization induced by 40 mM potassium chloride, some mean values from multiple determinations. On the procedure:
(§1) The compounds of the invention were tested here with administration of 40 mM of potassium chloride in the presence of a voltage-sensitive dye using the method described in detail in the following references [Whiteaker et al., Validation of FLIPR membrane potential dye for high-throughput screening of potassium channel modulators, J. Biomol. Screen. 6 (5), 305-312 (2001); Molecular Devices FLIPR Application Note: Measuring membrane potential using the FLIPR® membrane potential assay kit on Fluorometric Imaging Plate Reader (FLIPR®) systems, http://www.moleculardevices.com/reagents-supplies/assay-kits/ion-channels/flipr-membrane-potential-assay-kits]. The activity of the test substances was determined as their ability to inhibit a depolarization induced in the recombinant cells by 40 mM potassium chloride. The concentration which can block half of this depolarization is referred to as IC50.

For test [2], the target named is recombinant TASK-3 (Homo sapiens (Human), UniProt Q9NPC2). Put plainly: Inhibition of recombinant TASK-3 in stably transfected CHO cells (KCl-induced depolarization, voltage-sensitive dye, FLIPR). The format is cell-based. The conditions noted are these: depolarization induced by 40 mM potassium chloride, some mean values from multiple determinations. On the procedure:
as §1

recombinant TASK-1, sequence (O14649 whole entry): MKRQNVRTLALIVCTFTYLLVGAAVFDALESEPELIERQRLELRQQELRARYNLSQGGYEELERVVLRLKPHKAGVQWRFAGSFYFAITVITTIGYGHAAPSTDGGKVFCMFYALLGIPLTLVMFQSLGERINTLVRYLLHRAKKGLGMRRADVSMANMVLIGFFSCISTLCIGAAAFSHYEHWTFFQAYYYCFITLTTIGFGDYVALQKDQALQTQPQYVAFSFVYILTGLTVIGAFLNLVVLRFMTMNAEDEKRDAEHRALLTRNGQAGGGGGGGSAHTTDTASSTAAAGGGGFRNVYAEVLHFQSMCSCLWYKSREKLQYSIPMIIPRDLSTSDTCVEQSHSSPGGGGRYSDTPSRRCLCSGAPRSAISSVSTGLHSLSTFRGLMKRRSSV
recombinant TASK-3, sequence (Q9NPC2 whole entry): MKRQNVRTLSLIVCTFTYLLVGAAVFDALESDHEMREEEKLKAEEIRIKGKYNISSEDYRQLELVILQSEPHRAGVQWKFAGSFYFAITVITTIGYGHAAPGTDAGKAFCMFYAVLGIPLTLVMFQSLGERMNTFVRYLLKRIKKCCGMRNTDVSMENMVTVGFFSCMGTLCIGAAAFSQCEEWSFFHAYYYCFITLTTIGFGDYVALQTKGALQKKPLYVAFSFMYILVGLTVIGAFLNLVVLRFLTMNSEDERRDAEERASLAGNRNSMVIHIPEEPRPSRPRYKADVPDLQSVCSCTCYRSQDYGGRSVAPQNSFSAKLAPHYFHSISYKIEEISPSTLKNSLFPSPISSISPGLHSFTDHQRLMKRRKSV

Take `COc1cccc(C(=O)N2C3CCC2CN(Cc2c(-c4ccc(C(C)C)cc4)nc4ncccn24)CC3)n1` (stereo not shown) [Example 105]: the figures for the concentration for half-maximal inhibition (IC50) in test [1] and in test [2] were 3700 nM and 370 nM, respectively.

For the compound `O=C(c1ccccc1F)N1C2CCC1CN(Cc1c(-c3ccc(Cl)cc3)nc3ccccn13)CC2` (single isomer, unassigned) [Example 88, [3-{[2-(4-Chlorophenyl)imidazo[1,2-a]pyridin-3-yl]methyl}-3,9-diazabicyclo[4.2.1]non-9-yl](2-fluorophenyl)methanone], the IC50 in test [1] came out at 91 nM; in test [2] it was 1.6 nM.

In the case of `CC(C)c1ccc(-c2nc3ncccn3c2CN2CC3CCC2CCN3C(=O)c2cccc(OC(F)F)n2)cc1` (stereo not shown) [Example 51], the IC50 in test [1] stood at 1100 nM; in test [2] it was 110 nM.

As for `COc1ccc(F)c(C(=O)N2CCC3CCC(C2)N3Cc2c(-c3ccc(C(C)C)cc3)nc3ncccn23)n1` (stereo not shown) [Example 58], the IC50 in test [1] stood at 2900 nM; in test [2], 920 nM.

Consider `COc1cccc(C(=O)N2C3CCC2CN(Cc2c(-c4ccc(Cl)cn4)nc4ccccn24)CC3)n1` (single isomer, unassigned) [Example 84, [3-{[2-(5-chloropyridin-2-yl)imidazo[1,2-a]pyridin-3-yl]methyl}-3,9-diazabicyclo[4.2.1]non-9-yl](6-methoxypyridin-2-yl)methanone], for which the concentration for half-maximal inhibition (IC50) was 350 nM in test [1] and 25 nM in test [2].

Take `COc1ccc(F)c(C(=O)N2C3CCC2CN(Cc2c(-c4ccc(Cl)cn4)nc4ccccn24)CC3)n1` (single isomer, unassigned) [Example 16, [3-{[2-(5-Chloropyridin-2-yl)imidazo[1,2-a]pyridin-3-yl]methyl}-3,9-diazabicyclo[4.2.1]non-9-yl](3-fluoro-6-methoxypyridin-2-yl)methanone]: the values for the concentration for half-maximal inhibition (IC50) in test [1] and in test [2] were 1700 nM and 65 nM, respectively.

Take `COc1ccc(F)c(C(=O)N2C3CCC2CN(Cc2c(-c4ccc(Cl)cc4)nc4ncccn24)CC3)n1` (single isomer, unassigned) [Example 82, [3-{[2-(4-chlorophenyl)imidazo[1,2-a]pyrimidin-3-yl]methyl}-3,9-diazabicyclo[4.2.1]non-9-yl](3-fluoro-6-methoxypyridin-2-yl)methanone]: the half-inhibitory concentration (IC50) was found to be 30 nM in test [1] and 1.4 nM in test [2].

Regarding `COc1ccc(Cl)c(C(=O)N2CCC3CCC2CN3Cc2c(-c3ccc(C(C)C)cc3)nc3ncccn23)n1` (stereo not shown) [Example 43], the IC50 in test [1] turned out to be 2500 nM; in test [2], 250 nM.

For `CC(C)c1ccc(-c2nc3ncccn3c2CN2CC3CCC2CCN3C(=O)C2CCCC2)cc1` (stereo not shown) [Example 52], the IC50 was 3800 nM in test [1] and 140 nM in test [2].

`O=C(c1ccccc1F)N1C2CCN(Cc3c(-c4ccc(Cl)cc4)nc4ccccn34)CC1COC2` (racemic) [Example 71, (3-{[2-(4-chlorophenyl)imidazo[1,2-a]pyridin-3-yl]methyl}-8-oxa-3,10-diazabicyclo[4.3.1]dec-10-yl](2-fluorophenyl)methanone]: the figures for the IC50 in test [1] and in test [2] were 740 nM and 31 nM, respectively.

For `COc1cccc(C(=O)N2C3CCN(Cc4c(-c5ccc(Cl)cc5)nc5ncccn45)CC2COC3)n1` (racemic) [Example 75, [3-{[2-(4-chlorophenyl)imidazo[1,2-a]pyrimidin-3-yl]methyl}-8-oxa-3,10-diazabicyclo[4.3.1]dec-10-yl](6-methoxypyridin-2-yl)methanone], the half-inhibitory concentration (IC50) in test [1] was found to be 2300 nM; in test [2] it was 77 nM.

In the case of `O=C(c1cccc(OC(F)F)n1)N1CCC2CCC1CN2Cc1c(-c2ccc(Cl)cc2)nc2ncccn12` (stereo not shown) [Example 68], the half-inhibitory concentration (IC50) in test [1] is 230 nM; in test [2] it was 31 nM.

Regarding `COc1cccc(C(=O)N2CCC3CCC2CN3Cc2c(-c3ccc(C(C)C)cc3)nc3ncccn23)n1` (stereo not shown) [Example 41], the IC50 in test [1] was determined as 2200 nM; in test [2], 160 nM.

Consider `COc1cccc(C(=O)N2CCC3CCC2CN3Cc2c(-c3ccc(Cl)cc3)nc3ccccn23)n1` (stereo not shown) [Example 37], for which the IC50 in test [1] came to 30000 nM; in test [2], 1000 nM.
